Experiments:
[1] = test system: dogs; assay: 14-day continuous infusion tolerance studies of CXL-1020 in dogs; format: in vivo
Procedure: During in vivo trials of the nitroxyl donor CXL-1020 (N-hydroxy-2-methanesulfonylbenzene-1-sulfonamide), a 14-day study was conducted to evaluate tolerance in dogs treated with continuous infusions of CXL-1020 at dose rates of up to 90 μg/kg/min.
To further investigate this undesirable side-effect, a follow-up 14-day study in dogs was initiated.

[2] = test system: healthy volunteers; assay: 24-hour continuous infusion dose escalation safety study in healthy volunteers; format: in vivo, human
Procedure: To determine whether a local phlebitis would occur in humans upon longer duration dosing, a longer duration study was conducted in healthy volunteers. The longer duration study included a dose escalation study in which cohorts of 10 volunteers were to be sequentially administered a 24-hour continuous infusion of CXL-1020 at the dose rates of 10, 20, and 30 μg/kg/min with a safety assessment between each cohort. Each cohort consisted of 2 placebo and 8 active treatments with a sentinel pair of 1 active and 1 placebo followed by the main group of 1 placebo and 7 active treatments. The infusion was via a percutaneous catheter inserted into a forearm vein. The catheter was switched to the contralateral arm after 12 hours of infusion.

[3] = Stability of dosing solutions of compound of formula (2) stored at 25° C. (Example 11); format: physicochemical
Procedure: A series of dosing solutions of the compound of formula (2) for IV administration was assessed. The selected concentrate of compound of formula (2), prepared at 30 mg/mL in a vehicle of 30% CAPTISOL® at pH 4.0, was evaluated at low, mid, and high concentrations (0.1, 1 and 5 mg/mL, respectively) upon dilution into various dosing solutions. For dilution of the compound of formula (2) to 0.1 and 1 mg/mL, three dosing solutions were evaluated; 1) D5W, 2) D5W with 5 mM K-phosphate (pH=6), and 3) D5W with 20 mM K-phosphate (pH=6). To maintain iso-osmolality for dilutions of the compound of formula (2) to 5 mg/mL, the concentration of dextrose in the dosing solutions was reduced to 2.5% (w/v). Thus, the dosing solutions evaluated were; (1) D2.5W, (2) D2.5W with 5 mM K-phosphate (pH=6), and (3) D2.5W with 20 mM K-phosphate (pH=6).
The potential dosing solutions were assessed for visual appearance, pH, osmolality, and concentration and purity by HPLC (XBridge Phenyl Column (Waters); UV absorbance detector at 272 nm; mobile phase a step gradient of aqueous acetonitrile containing 0.1% (v/v) formic acid) after approximately 0, 16, 24, and 48 hours of storage at 25° C. […] In addition, the known degradant, the compound of formula (101), formed by release of the active HNO group, was observed after 16 hours at 25° C. in small quantities by HPLC in the dosing solutions containing phosphate buffer. […]

| SMILES | dose rate tolerated ([1]; 14-day continuous infusion, dogs) [µg/kg/min] | side effects in follow-up 14-day study ([1]; dog, in vivo) | tolerability ([2]; 10 μg/kg/min for 24-hours) | adverse findings ([2]; 20 μg/kg/min for 24-hours) | osmolality ([3]; 1 mg/mL in D5W with 20 mM phosphate) | visual appearance ([3]; 5 mg/mL in D2.5W with 5 mM phosphate (pH 6.0), after 48 hours at 25° C.) |
| --- | --- | --- | --- | --- | --- | --- |
| CS(=O)(=O)c1ccccc1S(=O)(=O)NO [CXL-1020, N-hydroxy-2-methanesulfonylbenzene-1-sulfonamide, reference compound] | 60 | significant swelling and inflammation in the dogs' hind limbs | well tolerated | mild findings (either clinical signs and/or changes in clinical pathology) in all 8 subjects consistent with infusion site phlebitis |  |  |
| CS(=O)(=O)c1cccc(S(=O)(=O)NO)c1 [Compound 2, N-Hydroxy-3-methanesulfonylbenzene-1-sulfonamide] |  |  |  |  | approximately 350 mOsm/kg | clear, light yellow |
